Active and inactive are the calls of the source. No cut-off for these calls is given here.
Columns and labels:
[1] = Antiproliferative activity against 3D-cultured human Osimertinib-resistant NCI-H1975 cell incubated for 72 hrs by MTT assay; assay type: functional, cell-based; conditions: NCI-H1975, 72 h
[2] = molecular target: Cyclin-dependent kinase 5/CDK5 activator 1 (Homo sapiens) (UniProt Q00535+Q15078); assay: Inhibition of CDK5/p25NCK (unknown origin) at 200 nM preincubated for 10 mins followed by substrate addition and measured after 60 mins in presence of ATP by ADP-Glo reagent based assay relative to control; assay type: protein-complex assay; conditions: time 70.0 min
Sequence of Cyclin-dependent kinase 5/CDK5 activator 1 (Homo sapiens) (Q00535 whole entry): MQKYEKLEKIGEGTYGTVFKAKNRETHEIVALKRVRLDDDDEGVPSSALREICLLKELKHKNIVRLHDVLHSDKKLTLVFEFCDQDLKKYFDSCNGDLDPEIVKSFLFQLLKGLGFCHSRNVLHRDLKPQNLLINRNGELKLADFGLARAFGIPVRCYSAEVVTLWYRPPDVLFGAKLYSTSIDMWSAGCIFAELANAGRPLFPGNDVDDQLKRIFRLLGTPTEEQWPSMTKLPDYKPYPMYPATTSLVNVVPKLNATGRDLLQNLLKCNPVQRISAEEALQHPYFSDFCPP
Sequence of Cyclin-dependent kinase 5/CDK5 activator 1 (Homo sapiens) (Q15078 99-307 partner limits assumed): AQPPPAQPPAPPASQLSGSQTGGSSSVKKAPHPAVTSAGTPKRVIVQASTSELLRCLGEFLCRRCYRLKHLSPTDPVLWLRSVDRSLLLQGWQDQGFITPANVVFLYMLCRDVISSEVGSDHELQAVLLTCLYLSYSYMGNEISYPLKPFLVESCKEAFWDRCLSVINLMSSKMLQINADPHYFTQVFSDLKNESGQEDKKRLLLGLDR

[3] = molecular target: Receptor-type tyrosine-protein kinase FLT3 (Homo sapiens) (UniProt P36888); assay: Inhibition of FLT3 (unknown origin) at 100 nM preincubated for 10 mins followed by substrate addition and measured after 60 mins in presence of ATP by ADP-Glo reagent based assay relative to control; conditions: time 70.0 min
Sequence of Receptor-type tyrosine-protein kinase FLT3 (Homo sapiens) (P36888 whole entry): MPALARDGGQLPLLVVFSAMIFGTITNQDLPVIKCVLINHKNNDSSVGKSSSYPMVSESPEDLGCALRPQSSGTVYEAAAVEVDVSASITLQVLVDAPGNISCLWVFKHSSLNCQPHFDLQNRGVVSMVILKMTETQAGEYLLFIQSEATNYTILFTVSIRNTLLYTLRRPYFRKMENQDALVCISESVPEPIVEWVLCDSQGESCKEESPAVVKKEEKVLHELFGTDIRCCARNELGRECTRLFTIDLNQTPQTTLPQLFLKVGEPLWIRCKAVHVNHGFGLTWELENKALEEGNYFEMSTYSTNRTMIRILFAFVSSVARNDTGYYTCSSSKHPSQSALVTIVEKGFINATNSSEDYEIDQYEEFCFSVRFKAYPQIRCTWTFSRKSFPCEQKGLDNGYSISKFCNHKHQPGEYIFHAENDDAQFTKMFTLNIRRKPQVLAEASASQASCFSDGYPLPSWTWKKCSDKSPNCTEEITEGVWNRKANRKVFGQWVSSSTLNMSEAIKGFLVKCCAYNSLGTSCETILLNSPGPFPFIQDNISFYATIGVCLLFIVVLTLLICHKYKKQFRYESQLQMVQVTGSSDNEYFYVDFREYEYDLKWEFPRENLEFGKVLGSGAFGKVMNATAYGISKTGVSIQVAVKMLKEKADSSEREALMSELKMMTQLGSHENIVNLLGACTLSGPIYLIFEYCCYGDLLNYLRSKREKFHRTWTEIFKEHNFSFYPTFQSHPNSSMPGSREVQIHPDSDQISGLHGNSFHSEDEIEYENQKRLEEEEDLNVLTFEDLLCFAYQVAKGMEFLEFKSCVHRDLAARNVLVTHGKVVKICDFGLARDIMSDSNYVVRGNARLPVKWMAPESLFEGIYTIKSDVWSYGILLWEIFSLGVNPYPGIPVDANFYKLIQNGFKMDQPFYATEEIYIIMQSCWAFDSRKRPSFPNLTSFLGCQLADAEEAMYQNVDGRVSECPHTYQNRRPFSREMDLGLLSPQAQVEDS

[4] = Downregulation of Mcl-1 level in human Osimertinib-resistant NCI-H1975 cell at 500 nM measured after 8 hrs by Western blotting analysis relative to control; assay type: functional
[5] = molecular target: T1, Cyclin-dependent kinase 2/cyclin E1 (Homo sapiens) (UniProt P24864+P24941); assay: Inhibition of CDK2/cyclin E1 (unknown origin) at 500 nM preincubated for 10 mins followed by substrate addition and measured after 60 mins in presence of ATP by ADP-Glo reagent based assay relative to control; assay type: protein-complex assay; conditions: time 70.0 min
[6] = tested on: Osimertinib-resistant HCC827AR cell; assay: Inhibition of cell growth in 3D-cultured human Osimertinib-resistant HCC827 cell by DAPI and PI staining based analysis; assay type: functional; conditions: dose 0.049-3.125 µM
[7] = Induction of apoptosis in human Osimertinib-resistant NCI-H1975 cell assessed as early apoptotic cells at 125 nM measured after 16 hrs by Annexin V-FITC and PI staining based analysis (Rvb =1.78%); assay type: functional
[8] = Induction of apoptosis in human Osimertinib-resistant NCI-H1975 cell assessed as late apoptotic cells at 500 nM measured after 16 hrs by Annexin V-FITC and PI staining based analysis (reference value: 2.84%); assay type: functional
[9] = Induction of apoptosis in human Osimertinib-resistant NCI-H1975 cell assessed as late apoptotic cells at 2000 nM measured after 16 hrs by Annexin V-FITC and PI staining based analysis (reference value: 2.84%); assay type: functional
[10] = Toxicity in ICR mouse assessed as abnormalities in lung at 1000 mg/kg, po measured after 9 days by H and E staining based analysis; assay type: organism-based; conditions: in vivo, 216 h, time 9 day
[11] = tested on: NCI-H1975; assay: Downregulation of Mcl-1 mRNA expression in human Osimertinib-resistant NCI-H1975 cell at 0.1 to 1.0 uM measured after 8 hrs by qPCR analysis; assay type: functional, cell-based; conditions: dose 0.1-1 µM
[12] = molecular target: CDK3/Cyclin E (Homo sapiens) (UniProt P24864+Q00526); assay: Inhibition of CDK3/Cyclin E1 (unknown origin) at 200 nM preincubated for 10 mins followed by substrate addition and measured after 60 mins in presence of ATP by ADP-Glo reagent based assay relative to control; assay type: protein-complex assay; conditions: time 70.0 min
Sequence of CDK3/Cyclin E (Homo sapiens) (P24864 whole entry, looked up): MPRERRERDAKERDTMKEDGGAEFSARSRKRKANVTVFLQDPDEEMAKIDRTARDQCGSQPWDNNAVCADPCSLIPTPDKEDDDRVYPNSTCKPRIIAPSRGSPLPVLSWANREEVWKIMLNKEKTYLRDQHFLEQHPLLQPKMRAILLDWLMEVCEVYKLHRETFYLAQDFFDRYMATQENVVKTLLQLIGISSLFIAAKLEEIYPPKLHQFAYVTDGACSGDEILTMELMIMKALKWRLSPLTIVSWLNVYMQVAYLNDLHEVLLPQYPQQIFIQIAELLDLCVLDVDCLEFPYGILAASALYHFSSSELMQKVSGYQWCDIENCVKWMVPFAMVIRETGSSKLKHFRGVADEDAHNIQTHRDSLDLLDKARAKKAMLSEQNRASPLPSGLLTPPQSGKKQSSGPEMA
Sequence of CDK3/Cyclin E (Homo sapiens) (Q00526 whole entry, looked up): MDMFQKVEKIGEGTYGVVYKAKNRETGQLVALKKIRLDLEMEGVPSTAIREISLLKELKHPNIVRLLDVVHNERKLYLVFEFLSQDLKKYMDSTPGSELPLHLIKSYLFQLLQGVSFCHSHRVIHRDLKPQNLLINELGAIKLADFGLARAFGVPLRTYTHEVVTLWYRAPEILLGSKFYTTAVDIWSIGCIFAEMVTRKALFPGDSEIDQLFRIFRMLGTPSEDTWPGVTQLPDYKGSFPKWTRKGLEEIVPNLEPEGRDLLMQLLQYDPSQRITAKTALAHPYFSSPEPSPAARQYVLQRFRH

[13] = Antiproliferative activity against 3D-cultured human Osimertinib-resistant HCC827 cell incubated for 72 hrs by MTT assay; assay type: functional, cell-based; conditions: Osimertinib-resistant HCC827AR cell
[14] = tested on: NCI-H1975; assay: Downregulation of Mcl-1 level in human Osimertinib-resistant NCI-H1975 cell at 500 nM by Western blotting analysis; assay type: functional, cell-based; conditions: time 2-12 hrs, TDE = time-dependent effect
[15] = Metabolic stability in rat liver microsomes assessed as half life at 10 uM measured at 5 to 60 mins by LC-MS/MS analysis; assay type: ADME, Microsome; conditions: time 5-60 min
[16] = Inhibition of colony formation in human Osimertinib-resistant NCI-H1975 cell assessed as inhibition of cell growth at 125 nM measured after 2 weeks by crystal violet staining based analysis relative to control; assay type: functional; conditions: NCI-H1975, 336 h
[17] = Antitumor activity against patient derived #0416 lung cancer organoid assessed as inhibition of growth measured after 4 days; assay type: functional, tissue-based; conditions: Homo sapiens, 96 h
[18] = Toxicity in ICR mouse assessed as morphological changes in spleen at 1000 mg/kg, po measured after 9 days by H and E staining based analysis; assay type: organism-based; conditions: in vivo, 216 h, time 9 day
[19] = tested on: NCI-H1975; assay: Downregulation of cleaved PARP level in human Osimertinib-resistant NCI-H1975 cell measured after 16 hrs by Western blot analysis; assay type: functional, cell-based; conditions: dose 125-2000 nM
[20] = Induction of apoptosis in human Osimertinib-resistant NCI-H1975 cell assessed as necrotic cells at 125 nM measured after 16 hrs in presence of osimertinib by Annexin V-FITC and PI staining based analysis (reference value: 0.50%); assay type: functional
[21] = molecular target: T1, Cyclin-dependent kinase 2/cyclin E1 (Homo sapiens); assay: Inhibition of CDK2/Cyclin E1 (unknown origin) at 200 nM preincubated for 10 mins followed by substrate addition and measured after 60 mins in presence of ATP by ADP-Glo reagent based assay relative to control; assay type: protein-complex assay; conditions: time 70.0 min
[22] = Antiproliferative activity against human Osimertinib-resistant NCI-H1975 cell assessed as cell growth inhibition incubated for 72 hrs in presence of osimertinib by MTT assay; assay type: functional, cell-based; conditions: NCI-H1975, 72 h
[23] = tested on: NCI-H1975; assay: Downregulation of cleaved caspase-3 level in human Osimertinib-resistant NCI-H1975 cell at 125 nM measured after 16 hrs in presence of osimertinib by Western blot analysis; assay type: functional, cell-based
[24] = molecular target: Interleukin-1 receptor-associated kinase 1 (Homo sapiens) (UniProt P51617); assay: Inhibition of IRAK1 (unknown origin) at 500 nM preincubated for 10 mins followed by substrate addition and measured after 60 mins in presence of ATP by ADP-Glo reagent based assay relative to control; conditions: time 70.0 min
Sequence of Interleukin-1 receptor-associated kinase 1 (Homo sapiens) (P51617 whole entry, looked up): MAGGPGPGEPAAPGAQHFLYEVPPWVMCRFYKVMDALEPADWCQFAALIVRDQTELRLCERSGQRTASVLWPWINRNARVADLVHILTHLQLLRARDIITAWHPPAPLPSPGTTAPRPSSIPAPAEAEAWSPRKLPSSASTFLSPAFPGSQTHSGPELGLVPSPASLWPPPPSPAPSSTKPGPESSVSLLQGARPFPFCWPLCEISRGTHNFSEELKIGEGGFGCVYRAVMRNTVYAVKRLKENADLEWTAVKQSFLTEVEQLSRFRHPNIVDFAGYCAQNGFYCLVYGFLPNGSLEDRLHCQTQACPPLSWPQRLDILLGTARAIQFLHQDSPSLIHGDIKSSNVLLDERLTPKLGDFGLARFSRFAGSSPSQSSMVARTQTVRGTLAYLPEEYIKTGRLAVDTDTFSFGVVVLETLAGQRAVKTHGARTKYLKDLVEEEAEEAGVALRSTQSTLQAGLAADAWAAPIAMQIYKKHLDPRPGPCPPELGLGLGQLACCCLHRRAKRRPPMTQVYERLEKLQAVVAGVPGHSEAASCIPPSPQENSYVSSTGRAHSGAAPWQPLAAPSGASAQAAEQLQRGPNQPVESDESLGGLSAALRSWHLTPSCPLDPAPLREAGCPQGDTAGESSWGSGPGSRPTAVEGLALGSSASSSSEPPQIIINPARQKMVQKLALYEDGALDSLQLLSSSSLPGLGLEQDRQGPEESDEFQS

[25] = Induction of apoptosis in human Osimertinib-resistant NCI-H1975 cell assessed as viable cells at 125 nM measured after 16 hrs by Annexin V-FITC and PI staining based analysis (reference value: 94.9%); assay type: functional; conditions: read-out: Activity
[26] = molecular target: Cyclin-dependent kinase 13/Cyclin-K (Homo sapiens) (UniProt Q14004+O75909); assay: Inhibition of CDK13/cyclin K (unknown origin) at 200 nM preincubated for 10 mins followed by substrate addition and measured after 60 mins in presence of ATP by ADP-Glo reagent based assay relative to control; assay type: protein-complex assay; conditions: time 70.0 min
Sequence of Cyclin-dependent kinase 13/Cyclin-K (Homo sapiens) (O75909 whole entry, looked up): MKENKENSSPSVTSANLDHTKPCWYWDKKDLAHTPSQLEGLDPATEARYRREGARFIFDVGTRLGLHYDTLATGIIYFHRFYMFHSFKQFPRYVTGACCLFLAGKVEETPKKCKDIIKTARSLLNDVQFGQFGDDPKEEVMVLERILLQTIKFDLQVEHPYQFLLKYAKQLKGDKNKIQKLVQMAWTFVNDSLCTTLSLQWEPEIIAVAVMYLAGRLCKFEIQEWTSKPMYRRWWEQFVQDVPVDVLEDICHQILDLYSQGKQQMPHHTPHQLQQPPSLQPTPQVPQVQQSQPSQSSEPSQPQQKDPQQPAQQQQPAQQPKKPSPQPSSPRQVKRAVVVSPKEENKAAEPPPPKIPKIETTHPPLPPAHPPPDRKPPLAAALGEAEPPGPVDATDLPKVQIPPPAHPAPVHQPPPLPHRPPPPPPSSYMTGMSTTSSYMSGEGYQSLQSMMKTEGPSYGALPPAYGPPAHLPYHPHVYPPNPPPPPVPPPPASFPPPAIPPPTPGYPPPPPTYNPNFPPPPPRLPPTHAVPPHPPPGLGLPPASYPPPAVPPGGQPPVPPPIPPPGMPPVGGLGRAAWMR
Sequence of Cyclin-dependent kinase 13/Cyclin-K (Homo sapiens) (Q14004 whole entry, looked up): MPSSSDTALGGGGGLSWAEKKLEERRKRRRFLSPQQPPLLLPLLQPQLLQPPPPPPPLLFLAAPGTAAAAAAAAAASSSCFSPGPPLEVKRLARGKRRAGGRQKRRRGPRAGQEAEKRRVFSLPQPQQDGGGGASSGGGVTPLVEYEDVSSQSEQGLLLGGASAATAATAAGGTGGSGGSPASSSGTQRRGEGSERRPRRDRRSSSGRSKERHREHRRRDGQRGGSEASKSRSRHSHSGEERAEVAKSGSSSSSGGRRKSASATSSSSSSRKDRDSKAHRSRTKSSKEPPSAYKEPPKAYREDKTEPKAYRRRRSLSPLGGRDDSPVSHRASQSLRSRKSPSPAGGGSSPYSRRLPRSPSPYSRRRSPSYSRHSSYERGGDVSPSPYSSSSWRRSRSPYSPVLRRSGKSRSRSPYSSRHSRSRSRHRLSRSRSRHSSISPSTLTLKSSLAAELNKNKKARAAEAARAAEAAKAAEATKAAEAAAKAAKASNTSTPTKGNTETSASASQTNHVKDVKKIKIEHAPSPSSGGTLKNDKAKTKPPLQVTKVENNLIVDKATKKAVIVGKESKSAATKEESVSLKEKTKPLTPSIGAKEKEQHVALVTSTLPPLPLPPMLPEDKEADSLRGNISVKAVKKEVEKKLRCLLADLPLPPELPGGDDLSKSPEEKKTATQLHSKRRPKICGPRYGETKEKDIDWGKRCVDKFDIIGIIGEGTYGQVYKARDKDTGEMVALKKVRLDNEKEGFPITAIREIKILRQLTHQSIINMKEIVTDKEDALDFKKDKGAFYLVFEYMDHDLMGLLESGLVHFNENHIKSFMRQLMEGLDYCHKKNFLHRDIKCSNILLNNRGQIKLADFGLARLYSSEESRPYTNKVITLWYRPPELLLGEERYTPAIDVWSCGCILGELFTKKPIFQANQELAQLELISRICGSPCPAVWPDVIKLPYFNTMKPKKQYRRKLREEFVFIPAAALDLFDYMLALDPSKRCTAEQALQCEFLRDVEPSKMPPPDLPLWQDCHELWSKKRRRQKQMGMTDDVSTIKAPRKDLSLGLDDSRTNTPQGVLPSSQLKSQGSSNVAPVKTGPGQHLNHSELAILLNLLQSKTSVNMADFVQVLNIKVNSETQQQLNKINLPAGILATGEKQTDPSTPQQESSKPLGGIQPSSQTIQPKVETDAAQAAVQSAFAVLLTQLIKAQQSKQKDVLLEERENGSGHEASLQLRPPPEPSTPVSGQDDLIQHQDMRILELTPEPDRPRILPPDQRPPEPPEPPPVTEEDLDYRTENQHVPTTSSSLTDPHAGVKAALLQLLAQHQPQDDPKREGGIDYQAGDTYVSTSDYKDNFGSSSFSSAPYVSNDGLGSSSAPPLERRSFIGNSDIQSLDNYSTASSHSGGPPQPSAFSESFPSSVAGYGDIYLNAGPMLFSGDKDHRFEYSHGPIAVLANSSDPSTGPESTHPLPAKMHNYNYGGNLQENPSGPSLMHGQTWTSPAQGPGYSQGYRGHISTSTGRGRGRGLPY

[27] = molecular target: CDK18/Cyclin Y (Homo sapiens) (UniProt Q07002+Q8ND76); assay: Inhibition of CDK18/cyclin Y (unknown origin) at 200 nM preincubated for 10 mins followed by substrate addition and measured after 60 mins in presence of ATP by ADP-Glo reagent based assay relative to control; assay type: protein-complex assay; conditions: time 70.0 min
[28] = molecular target: CDK2/Cyclin A2 (Homo sapiens) (UniProt P24941+P20248); assay: Inhibition of CDK2/Cyclin A2 (unknown origin) at 200 nM preincubated for 10 mins followed by substrate addition and measured after 60 mins in presence of ATP by ADP-Glo reagent based assay relative to control; assay type: protein-complex assay; conditions: time 70.0 min
[29] = tested on: PC-9; assay: Antiproliferative activity against human PC-9 cells incubated for 72 hrs by MTT assay; assay type: functional, cell-based; conditions: PC-9, 72 h
[30] = tested on: NCI-H1975; assay: Downregulation of Mcl-1 level in human Osimertinib-resistant NCI-H1975 cell at 500 nM measured after 2 hrs by Western blotting analysis; assay type: functional, cell-based
[31] = Antitumor activity against patient derived #2566 lung cancer organoid assessed as inhibition of growth measured after 4 days; assay type: functional, tissue-based; conditions: Homo sapiens, 96 h

O=C(NCCN1CCOCC1)c1ccc2cc1OCCCCCCOc1cc(ccc1F)-c1nc(ncc1F)N2
IC50 [1]: < 50 nM
inhibition [2]: 38.9%
inhibition [3]: 21.2%
Activity [4]: 90%
inhibition [5]: 76.1%
inhibition [6]: Dose-Dependent Effect
Activity [7]: 4.7%
Activity [8]: 7.02%
Activity [9]: 13.7%
Activity [10]: Non-Toxic
Activity [11]: Active
inhibition [12]: 29.6%
IC50 [13]: 330 nM
Activity [14]: Tde
half-life at 10 µM [15]: 6.8 min
inhibition at 0.125 µM [16]: 100%
IC50 [17]: 79 nM
Activity [18]: Non-Toxic
Activity [19]: Dose-Dependent Effect
Activity [20]: 0.27%
inhibition [21]: 44.7%
IC50 [22]: 83 nM
Activity [23]: Active
inhibition [24]: 73.5%
viability at 0.125 µM [25]: 88.9%
inhibition [26]: 46.7%
inhibition [27]: 12%
inhibition [28]: 39.1%
IC50 [29]: 126 nM
Activity [30]: Active
IC50 [31]: < 20 nM

From ChEMBL document CHEMBL5390253, “Discovery of Selective and Potent Macrocyclic CDK9 Inhibitors for the Treatment of Osimertinib-Resistant Non-Small-Cell Lung Cancer” (J Med Chem, 2023)
